Assay results: paper PMC6114901, “An automated screening method for detecting compounds with goitrogenic activity using transgenic zebrafish embryos” (PLoS ONE, 2018)
Read-outs that look alike come from different tables or passages of the source.

Columns and labels:
zebrafish embryos = assay: in vivo; conditions: for LC10: unit not given, in µM; for Slope: mortality concentration-response curve
Protocol: Fish embryo acute toxicity tests were performed similar as described previously, using 10 or 25 embryos per concentration and replicate exposed in crystallization dishes from 48 to 120 hpf. No exchange of exposure media was performed. Lethality was identified by coagulation, missing heartbeat, a non–detached tail and/or missing of somites. Raw data for mortality and phenotypic assessment are provided as S1 Table. Concentration-response curves for mortality are shown in S2 Fig.

[1] = system: thyroid hormone levels (T4); conditions: ref Thienpont et al. [13], cited from earlier work
[2] = 72 hpf, 15000 µmol/L, replicate 2, 10 embryos
[3] = 72 hpf, 30000 µmol/L, replicate 2, 10 embryos
[4] = 72 hpf, 50000 µmol/L, replicate 1, 10 embryos
[5] = 72 hpf, 100000 µmol/L, replicate 1, 10 embryos
[6] = 96 hpf, 20000 µmol/L, replicate 2, 10 embryos
[7] = 96 hpf, 25000 µmol/L, replicate 2, 10 embryos
[8] = 96 hpf, 30000 µmol/L, replicate 2, 10 embryos
[9] = 96 hpf, 50000 µmol/L, replicate 1, 10 embryos
[10] = 96 hpf, 50000 µmol/L, replicate 2, 10 embryos
[11] = 96 hpf, 100000 µmol/L, replicate 1, 10 embryos
[12] = 120 hpf, 10000 µmol/L, replicate 1, 10 embryos
[13] = 120 hpf, 15000 µmol/L, replicate 2, 10 embryos
[14] = 120 hpf, 20000 µmol/L, replicate 2, 10 embryos
[15] = 120 hpf, 25000 µmol/L, replicate 1, 10 embryos
[16] = 120 hpf, 25000 µmol/L, replicate 2, 10 embryos
[17] = 120 hpf, 30000 µmol/L, replicate 2, 10 embryos
[18] = 120 hpf, 40000 µmol/L, replicate 2, 10 embryos
[19] = 120 hpf, 50000 µmol/L, replicate 1, 10 embryos
[20] = 120 hpf, 50000 µmol/L, replicate 2, 10 embryos
[21] = 120 hpf, 100000 µmol/L, replicate 1, 10 embryos

**Q.** What does the source list for `[K+].[O-][Cl+3]([O-])([O-])[O-]` [Potassium perchlorate, potassium perchlorate]?
**A.** No Surviving (zebrafish embryos; 72 hpf, 1000 µmol/L, replicate 1, 10 embryos): 10; No Surviving (zebrafish embryos; 72 hpf, 5000 µmol/L, replicate 1, 10 embryos): 10; No Surviving (zebrafish embryos; 72 hpf, 10000 µmol/L, replicate 1, 10 embryos): 10; No Surviving (zebrafish embryos; [2]): 10; Sublethal effects mtail (zebrafish embryos; [2]): 1; No Surviving (zebrafish embryos; 72 hpf, 20000 µmol/L, replicate 2, 10 embryos): 10; No Surviving (zebrafish embryos; 72 hpf, 25000 µmol/L, replicate 1, 10 embryos): 10; No Surviving (zebrafish embryos; 72 hpf, 25000 µmol/L, replicate 2, 10 embryos): 10; Lethal effects k/f (zebrafish embryos; [3]): 1; No Surviving (zebrafish embryos; [3]): 9; No Surviving (zebrafish embryos; 72 hpf, 40000 µmol/L, replicate 2, 10 embryos): 10; Lethal effects k/f (zebrafish embryos; [4]): 3; No Surviving (zebrafish embryos; [4]): 7; Sublethal effects tip (zebrafish embryos; [4]): 1; No Surviving (zebrafish embryos; 72 hpf, 50000 µmol/L, replicate 2, 10 embryos): 10; Lethal effects nohb (zebrafish embryos; [5]): 1; No Surviving (zebrafish embryos; [5]): 9; Sublethal effects Total Sublethal (zebrafish embryos; [5]): 8; Sublethal effects beh (zebrafish embryos; [5]): 5; Sublethal effects nomov (zebrafish embryos; [5]): 3; No Surviving (zebrafish embryos; 96 hpf, 1000 µmol/L, replicate 1, 10 embryos): 10; No Surviving (zebrafish embryos; 96 hpf, 5000 µmol/L, replicate 1, 10 embryos): 10; No Surviving (zebrafish embryos; 96 hpf, 10000 µmol/L, replicate 1, 10 embryos): 10; No Surviving (zebrafish embryos; 96 hpf, 15000 µmol/L, replicate 2, 10 embryos): 10; Lethal effects nohb (zebrafish embryos; [6]): 3; No Surviving (zebrafish embryos; [6]): 7; Sublethal effects Total Sublethal (zebrafish embryos; [6]): 1; Sublethal effects mtail (zebrafish embryos; [6]): 1; No Surviving (zebrafish embryos; 96 hpf, 25000 µmol/L, replicate 1, 10 embryos): 10; Lethal effects nohb (zebrafish embryos; [7]): 6; No Surviving (zebrafish embryos; [7]): 4; Sublethal effects Total Sublethal (zebrafish embryos; [7]): 4; Sublethal effects nobc (zebrafish embryos; [7]): 4; Lethal effects k/f (zebrafish embryos; [8]): 1; Lethal effects nohb (zebrafish embryos; [8]): 9; No Surviving (zebrafish embryos; 96 hpf, 40000 µmol/L, replicate 2, 10 embryos): 10; Lethal effects k/f (zebrafish embryos; [9]): 1; Lethal effects nohb (zebrafish embryos; [9]): 4; No Surviving (zebrafish embryos; [9]): 5; Sublethal effects Total Sublethal (zebrafish embryos; [9]): 3; Sublethal effects nobc (zebrafish embryos; [9]): 2; Sublethal effects nomov (zebrafish embryos; [9]): 1; Sublethal effects tip (zebrafish embryos; [9]): 1; Lethal effects k/f (zebrafish embryos; [10]): 1; No Surviving (zebrafish embryos; [10]): 9; Lethal effects nohb (zebrafish embryos; [11]): 10; No Surviving (zebrafish embryos; [11]): 0; Sublethal effects nobc (zebrafish embryos; [11]): 10; No Surviving (zebrafish embryos; 120 hpf, 1000 µmol/L, replicate 1, 10 embryos): 10; No Surviving (zebrafish embryos; 120 hpf, 5000 µmol/L, replicate 1, 10 embryos): 10; Lethal effects nohb (zebrafish embryos; [12]): 1; No Surviving (zebrafish embryos; [12]): 9; Sublethal effects EdY / EdP (zebrafish embryos; [12]): 1; Sublethal effects Total Sublethal (zebrafish embryos; [12]): 1; Lethal effects k/f (zebrafish embryos; [13]): 1; Lethal effects nohb (zebrafish embryos; [13]): 5; No Surviving (zebrafish embryos; [13]): 4; Sublethal effects Total Sublethal (zebrafish embryos; [13]): 5; Sublethal effects mtail (zebrafish embryos; [13]): 5; Lethal effects k/f (zebrafish embryos; [14]): 4; No Surviving (zebrafish embryos; [14]): 6; Sublethal effects Total Sublethal (zebrafish embryos; [14]): 6; Sublethal effects nobc (zebrafish embryos; [14]): 6; Lethal effects nohb (zebrafish embryos; [15]): 9; No Surviving (zebrafish embryos; [15]): 1; Sublethal effects Total Sublethal (zebrafish embryos; [15]): 1; Sublethal effects nobc (zebrafish embryos; [15]): 1; Lethal effects k/f (zebrafish embryos; [16]): 4; Lethal effects nohb (zebrafish embryos; [16]): 2; No Surviving (zebrafish embryos; [16]): 4; Sublethal effects Total Sublethal (zebrafish embryos; [16]): 4; Sublethal effects nobc (zebrafish embryos; [16]): 4; Lethal effects k/f (zebrafish embryos; [17]): 1; No Surviving (zebrafish embryos; [17]): 9; Sublethal effects Total Sublethal (zebrafish embryos; [17]): 9; Sublethal effects nobc (zebrafish embryos; [17]): 9; Lethal effects k/f (zebrafish embryos; [18]): 1; Lethal effects nohb (zebrafish embryos; [18]): 2; No Surviving (zebrafish embryos; [18]): 7; Sublethal effects Total Sublethal (zebrafish embryos; [18]): 7; Sublethal effects nobc (zebrafish embryos; [18]): 7; Lethal effects nohb (zebrafish embryos; [19]): 4; No Surviving (zebrafish embryos; [19]): 6; Sublethal effects Total Sublethal (zebrafish embryos; [19]): 6; Sublethal effects nobc (zebrafish embryos; [19]): 6; Lethal effects k/f (zebrafish embryos; [20]): 4; Lethal effects nohb (zebrafish embryos; [20]): 1; No Surviving (zebrafish embryos; [20]): 5; Sublethal effects Total Sublethal (zebrafish embryos; [20]): 5; Sublethal effects nobc (zebrafish embryos; [20]): 5; Lethal effects nohb (zebrafish embryos; [21]): 10; No Surviving (zebrafish embryos; [21]): 0; LC50 (zebrafish embryos; mortality after 48 h of exposure, S2 Fig, unit inferred): 50.3 mM; LC10 (zebrafish embryos; mortality after 48 h of exposure, S2 Fig): 10862; LC50 (zebrafish embryos; mortality after 72 h of exposure, S2 Fig, unit inferred): 33.1 mM; LC10 (zebrafish embryos; mortality after 72 h of exposure, S2 Fig): 3232; Slope (zebrafish embryos; 48 h of exposure): 1.43; Slope (zebrafish embryos; 72 h of exposure): 0.944; LC50 (zebrafish embryos; read-out: LC50 (48–120 hpf), mortality, embryos exposed 48–120 hpf): 33.1 mM; EC50 ([1]; read-out: EC50 T4 reduction, reduction of thyroid hormone levels (immunostaining)): 0.0025 mM; TDI (T4) ([1]; thyroid disruption index based on T4 reduction): 6030
